From PMC10087438 (The Febs Journal, 2022)
Each block holds one molecule with its values, some of them ahead of it.

Key:
[1] = target: T1, PaNADK (NAD kinase from Pseudomonas aeruginosa) (Pseudomonas aeruginosa, UniProt Q9HZC0); assay: X-ray crystal structure, […] Å; format: binding
T1 sequence (Q9HZC0 1-295): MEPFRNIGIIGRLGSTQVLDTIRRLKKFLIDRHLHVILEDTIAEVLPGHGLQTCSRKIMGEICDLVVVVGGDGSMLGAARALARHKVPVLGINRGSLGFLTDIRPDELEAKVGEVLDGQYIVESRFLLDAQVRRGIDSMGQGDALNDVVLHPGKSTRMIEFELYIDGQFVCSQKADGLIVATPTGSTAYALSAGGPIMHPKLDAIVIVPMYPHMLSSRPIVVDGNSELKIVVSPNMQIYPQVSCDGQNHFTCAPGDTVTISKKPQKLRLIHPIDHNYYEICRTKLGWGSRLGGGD

[2] = target: T2, LmNADK (NADK 1 from Listeria monocytogenes) (Listeria monocytogenes, UniProt Q8Y8D7); assay: enzyme inhibition; format: biochemical
T2 sequence (Q8Y8D7 1-264): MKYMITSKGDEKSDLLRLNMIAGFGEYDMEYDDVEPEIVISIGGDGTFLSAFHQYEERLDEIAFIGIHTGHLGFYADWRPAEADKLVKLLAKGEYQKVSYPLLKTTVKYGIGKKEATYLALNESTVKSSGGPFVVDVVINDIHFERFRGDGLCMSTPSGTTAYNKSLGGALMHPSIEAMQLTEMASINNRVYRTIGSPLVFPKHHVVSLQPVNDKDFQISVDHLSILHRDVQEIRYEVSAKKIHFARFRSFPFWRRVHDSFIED

[3] = target: T1, PaNADK (NAD kinase from Pseudomonas aeruginosa); assay: G6PDH-coupled enzyme assay, global competitive inhibition fit; format: biochemical
[4] = substrate: Nc1ncnc2c1ncn2[C@@H]1O[C@H](COP(=O)(O)OP(=O)(O)OP(=O)(O)O)[C@@H](O)[C@H]1O; assay: purified protein; details: Mg2+
[5] = substrate: NC(=O)c1ccc[n+]([C@@H]2O[C@H](COP(=O)([O-])OP(=O)(O)OC[C@H]3O[C@@H](n4cnc5c(N)ncnc54)[C@H](O)[C@@H]3O)[C@@H](O)[C@H]2O)c1; assay: purified protein; details: MgATP

Molecule: NC(=O)c1ccc[n+]([C@@H]2O[C@H](COP(=O)([O-])OP(=O)(O)OC[C@H]3O[C@@H](n4cnc5c(N)ncnc54)[C@H](OP(=O)(O)O)[C@@H]3O)[C@@H](O)[C@H]2O)c1 [NADP^+]
- X-ray crystal structure, 2.3 Å [1]: we determined the atomic structure of the protein bound to NADP^+ by X‐ray crystallography

- Ki [2]: 3.2 ± 0.4 µM
- Ki [3]: 4.6 ± 0.3 µM
Molecule: NC(=O)c1cccc([C@@H]2O[C@H](COCC#Cc3nc4c(N)ncnc4n3[C@@H]3O[C@H](CO)[C@@H](O)[C@H]3O)[C@@H](O)[C@H]2O)c1 [compound 1, 5‐O ‐[3‐(adenosin‐8‐yl)prop‐2‐yn‐1‐yl]‐1‐deoxy‐1‐(3‐carbamoylphenyl)‐β‐D‐ribofuranose]

B1: PaNADK (NAD kinase from Pseudomonas aeruginosa) (Pseudomonas aeruginosa PAO1) (protein)
chain: T1 sequence (Q9HZC0 1-295)
- Km [4]: 2000 µM
- Km [5]: 150 µM
